For series [1], the system named is P. aeruginosa PA14. Kind of series: Murine burn and infection model, M64 plus ciprofloxacin. The format is in vivo, DC-1 mice. The following applies: IV at 6, 20, 28, 40, 60, 68 and 80 h; M64 100 μM (4 mg/Kg), ciprofloxacin 0.4 mg/Kg; 7 days; un-injected controls 30%.
Text: A murine thermal injury model (Stevens et al., J Burn Care Rehabil. 1994; 15:232-235) was used as previously described to further assess bacterial pathogenicity in 6-wk-old DC-1 mice (Rahme et al., Science, 268(5219): p. 1899-902 (1995)) in the presence of combination of Ciprofloxacin (Bayer AG) and M64. Following mouse anesthetization, a full-thickness thermal burn injury involving 5%-8% of the body surface area was produced on the dermis of the shaved abdomen, and an inoculum of about 6-7×10^3 PA14 cells was injected intradermally into the burn eschar along with DMSO or 100 μM M64 compound. 100 μM (4 mg/Kg) of M64, 0.4 mg/Kg of ciprofloxacin (lower than the recommended dose of 10 mg/Kg), or a combination of M64+ciproflocaxin was also injected IV via tail vein at 6, 20, 28, 40, 60, 68 h and 80 h post-infection. Mice survival was subsequently assessed over the course of 7 days. Ten animals per treatment were used. In this set of experiments the concentration of ciprofloxacin used was lower than the therapeutic levels recommended to permit assessment of the possible synergistic effect between M64 and ciprofloxacin.
Series [2] relates to pyocyanin, an MvfR-regulated virulence factor, P. aeruginosa PA14. Kind of series: Quantification of pyocyanin (OD520nm of chloroform-extracted cultures). The class given is cell-based, Pseudomonas aeruginosa. The protocol:
Pyocyanin levels were determined by measuring OD520nm of chloroform-extracted cultures.
Compounds were tested at various concentrations for their impact on 4-hydroxy-2-alkylquinoline (HAQ) levels, including the MvfR ligands 4-hydroxy-2-heptylquinoline (HHQ) and 3,4-dihydroxy-2-heptylquinoline (PQS), as well as 2-n-heptyl-4-hydroxyquinoline-N-oxide (HQNO) and 2,4-dihydroxyquinoline (DHQ) (FIGS. 2A-2C). Levels of the phenazine, pyocyanin, an MvfR-regulated virulence factor, were also determined.

Series [3] deals with Raw264.7 macrophage cells infected with PA14. As to the kind of experiment: Viability of PA14-infected macrophage cells (MTT assay). The class given is cell-based. Conditions: for reduction of PA14-induced cytotoxicity: PA14 MOI 100, 3 h, 100 μM compound. The protocol:
Raw264.7 macrophage cells were cultured in Dulbecco's modified eagles medium (DMEM) containing 10% FCS, 2 mM glutamine and antibiotic-antimycotic solutions. Before infections cells were washed with PBS (without Mg2+ and Ca2+) and antibiotic-free medium was used for infections. The cells were infected with PA14 and PA14 isolates grown in the presence of compounds at an MOI of 100 for 3 h at 37° C. in a 5% CO2 atmosphere. During infections cells were incubated with 100 μM of compounds as well. After 3 hours of PA14 infection, the cells were washed and incubated with DMEM medium containing polymixin B and gentamicin in order to kill the extracellular bacteria. The viability of Raw264.7 was assessed using the MTT assay, which detects the early sign of eukaryotic cell death. The formazan crystals formed in viable, metabolically active cells were dissolved by the addition of 100 μl DMSO and optical density was measured at 570 nm in a microplate reader.
In order to determine whether or not the potent inhibitors are cytotoxic in eukaryotes, Raw 264.7 macrophage cells were exposed to selected compounds. No significant cytotoxicity was observed following compound exposure for 3 hours compared to the DMSO solvent control (FIG. 6A). The cytotoxicity of the macrophage cells was also determined when infected with PA14 bacterial cells alone or in the presence of the compounds.

Series [4] deals with 4-hydroxy-2-alkylquinoline (HAQ) levels, P. aeruginosa PA14 (MvfR regulon). The format is cell-based, Pseudomonas aeruginosa.
Series [5] has as its system ΔmvfR mutant constitutively expressing the pqsABCD genes. Kind of series: HAQ production in ΔmvfR mutant constitutively expressing pqsABCD (LC/MS). The following applies: 100 μM inhibitor. The class given is cell-based, Pseudomonas aeruginosa. The source says: However, since these compounds diminish or abolish P. aeruginosa HAQ production, it is possible that they target either the MvfR protein itself or enzymes in the pqs operon that are required for HAQ synthesis. To further understand the target(s) of these compounds, a ΔmvfR mutant constitutively expressing the pqsABCD genes was used. This strain is capable of synthesizing HHQ, HQNO, PQS and DHQ independently of MvfR. […] Since PqsA and PqsD are necessary and sufficient for DHQ production, it is possible that these inhibitors target either PqsB or PqsC enzymes, which are required for HHQ and PQS production.

Series [6] concerns P. aeruginosa PA14. As to the kind of experiment: Murine burn and infection model. The following applies: ~100 μM compound/mouse at infection and IV at 6 and 24 h; solvent control 38%.
Experimental: A thermal injury mouse model was used as described previously to assess bacterial pathogenicity in 6 week old BALBC mice (Charles River Laboratories). Following mouse anesthetization, a full-thickness thermal burn injury involving 5%-8% of the body surface area was produced on the dermis of the shaved abdomen. An inoculum of 4×10^4 PA14 cells, corresponding to a lethal dose of 50%, was injected intradermally into the burn eschar along with the compound or solvent, prepared as follows: 5 μl of a 50 mM stock in DMSO of compound was added to a solution of 5% CremophorEL/Ethanol (50/50% vol) in 50 μl saline. […] Each mouse also received IV injections of 50 μl of compound or solvent, as prepared above at 6 hours and 24 hours post-infection.
A murine thermal injury and infection model was used to assess the impact of the compounds on P. aeruginosa pathogenesis in animals. Due to the hydrophobic nature of the compounds, 5% CremophorEL/Ethanol (50/50% vol) was used as an emulsifier to dissolve the compound in saline prior to injecting into animals. […] The bacteria and either 100 μM compound/mouse or DMSO control were co-injected at the time of infection. Compounds were also injected 6 hours and 24 hours post-infection.
For series [7], the target named is MvfR binding to pqsA promoter (Pseudomonas aeruginosa, UniProt Q9I4X0).
Chain of MvfR binding to pqsA promoter (Q9I4X0 whole entry, looked up): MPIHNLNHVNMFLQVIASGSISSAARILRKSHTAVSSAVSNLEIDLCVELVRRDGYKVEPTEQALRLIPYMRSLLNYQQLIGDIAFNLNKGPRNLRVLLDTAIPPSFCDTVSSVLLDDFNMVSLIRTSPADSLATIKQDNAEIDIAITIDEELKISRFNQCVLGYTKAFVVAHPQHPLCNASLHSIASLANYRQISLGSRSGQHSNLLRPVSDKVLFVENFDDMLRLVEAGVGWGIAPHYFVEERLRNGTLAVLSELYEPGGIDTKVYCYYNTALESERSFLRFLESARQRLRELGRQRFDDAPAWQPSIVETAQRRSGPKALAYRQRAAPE
Where [8] appears, read: very low concentrations, nanomolar range.

Entries after “also recorded” stand apart in the source; their conditions may differ.

For `O=C(O)c1cn(C2CC2)c2cc(N3CCNCC3)c(F)cc2c1=O` [ciprofloxacin, reference compound], the survival rate in the series with P. aeruginosa PA14 [1] is reported as 80%.

With `Cc1ccc2nc(SCC(=O)Nc3ccc(Br)cc3)[nH]c2c1` [Compound M27, N-(4-bromophenyl)-2-((6-methyl-1H-benzo[d]imidazol-2-yl)thio)acetamide], the pyocyanin levels entry in series [2] (twelve of the 17 HAQ-lowering hits, vs control) is “less than half of the control”. For the same compound, in series [3], the “reduction of PA14-induced cytotoxicity” value is given as “effectively reduced cytotoxicity”. For the same compound, the “concentration at which compound was effective (decreased HAQ levels), as low as” value in series [4] (among the seventeen HAQ-lowering hits) worked out at 10 µM. The “activity (impacts on HAQ and pyocyanin levels), structure-activity comparison” value in series [4] (tested at 10 μM) is “more active than M55”. Further, in series [5], the DHQ level entry is “increased”; the “HHQ and HQNO levels” value is on record as “reduced”.

For `O=C(CSc1nc2ccc([N+](=O)[O-])cc2[nH]1)Nc1ccc(Oc2ccccc2)cc1` [Compound M64, 2-((6-nitro-1H-benzo[d]imidazol-2-yl)thio)-N-(4-phenoxyphenyl)acetamide], the survival rate in the series with P. aeruginosa PA14 [1] was 75%. The “reduction / inhibition of pyocyanin” value in series [2] (setting [8]) is “one of the most effective; also recorded: considerably inhibited”. In series [3] (Mus musculus, RAW264.7, 3 h, read-out: viable macrophage cells surviving post-infection), the viability at 100 µM is 80%. Besides, the “reduction of PA14-induced cytotoxicity” value in series [3] is “effectively reduced cytotoxicity”. This compound also registered an overall surviving mice with P. aeruginosa PA14 [6] of 84%. Further, the “reduction / inhibition of HAQs” value in series [4] (setting [8]) is recorded as “one of the most effective; also recorded: considerably inhibited”. Besides, in series [7], the “effect on MvfR binding to pqsA promoter (ChIP fold enrichment)” value is recorded as “affects MvfR binding to pqsA promoter by competing with the MvfR ligand PQS”.

Source of the values: patent US8877940B2, “Antibiotic tolerance inhibitors” (Institut National de la Recherche Scientifique, priority 2011, dated 2014).
